Data as given in ChEMBL document CHEMBL1201862, “PubChem BioAssay data set” (2004).
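Assay format: 96-well plates, 48-hour exposure. The concentration for 50% growth inhibition is given as GI50.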 Active and inactive are the calls of the source. Rule as the data show it: active = GI50 up to about 1.1 µM and inactive = higher.

What was measured:
Test in all cases: inhibition of tumour cell growth, NCI panel, 48 h
[1] = test system: TK-10
[2] = test system: HL-60
[3] = test system: MOLT-4
[4] = test system: SW-620
[5] = test system: SNB-19
[6] = test system: NCI-H226
[7] = test system: A498
[8] = test system: 786-0
[9] = test system: SN12C
[10] = test system: SF-539
[11] = test system: IGROV-1
[12] = test system: HT-29
[13] = test system: SNB-75
[14] = test system: NCI-H23
[15] = test system: RXF 393
[16] = test system: SK-MEL-28
[17] = test system: HOP-62
[18] = test system: COLO 205
[19] = test system: KM12
[20] = test system: SK-OV-3

Measured: GI50

COc1cc(C2C(C(=O)NCc3ccccc3)=C(C)NC(C)=C2C(=O)NCc2ccccc2)ccc1O
inactive: [1] 35.2 µM | [2] 25.4 µM | [3] 20.4 µM | [4] 37.5 µM | [5] 29.9 µM | [6] 37.9 µM | [7] 84.9 µM | [8] 46.2 µM | [9] 31.5 µM | [10] 20.9 µM | [11] 34.4 µM | [12] 21.5 µM | [13] 44.9 µM | [14] 31.7 µM | [15] 28.8 µM | [16] 34.5 µM

C(=C\Nc1ccc(Oc2ccccc2)cc1)/C=N/c1ccc(Oc2ccccc2)cc1
inactive: [1] 18.7 µM | [2] 23.7 µM | [3] > 10 µM | [4] 19 µM | [5] 17.3 µM | [6] 55.3 µM | [7] 16.2 µM | [8] 16.6 µM | [9] 14.8 µM | [10] 16.4 µM | [17] 20.7 µM | [18] 20 µM | [19] 16.4 µM | [11] 17.1 µM | [12] 15.9 µM | [13] 17.2 µM | [14] 22.2 µM | [15] 20 µM | [16] 16.6 µM

CC(C)(C)OC(=O)NC(Cc1ccc(OCc2ccccc2)cc1)C(=O)NC(COCc1ccccc1)C(=O)Oc1c(Cl)c(Cl)c(Cl)c(Cl)c1Cl (configuration not stated)
inactive: [1] 29.8 µM | [2] 59.8 µM | [20] 17.1 µM | [3] 37.5 µM | [4] 25.6 µM | [5] 29.3 µM | [6] 21.4 µM | [7] 23.1 µM | [9] 23.3 µM | [10] 15.5 µM | [17] 16.4 µM | [18] 18.7 µM | [19] 19.3 µM | [11] 15.8 µM | [12] 25.6 µM | [13] 29.6 µM | [14] 17.2 µM | [15] 24.8 µM | [16] 25.1 µM

COc1ccc(-c2csc3c2[N+]2(C)C=CC=C2C3N2CCCC2)cc1 (configuration not stated)
inactive: [1] 48.9 µM | [2] 3.61 µM | [20] 49.1 µM | [3] 27.5 µM | [4] 24.4 µM | [5] 26.6 µM | [6] 2.21 µM | [7] 31.1 µM | [8] 41.6 µM | [10] 17.7 µM | [17] 27.2 µM | [18] 13.6 µM | [19] 15.3 µM | [11] 11.2 µM | [12] 16.9 µM | [13] 4.12 µM | [14] 10.6 µM | [15] 21.3 µM

COc1ccc(C2C3C(=O)C=CC(=O)C3[C@@H]2C)cc1OC (some centres not stated)
inactive: [1] > 100 µM | [2] > 10 µM | [20] > 100 µM | [3] 36 µM | [4] 42.1 µM | [5] 12.2 µM | [6] 81.7 µM | [7] > 100 µM | [8] 40.7 µM | [10] > 100 µM | [17] > 100 µM | [18] 78.5 µM | [19] > 100 µM | [11] > 100 µM | [12] > 100 µM | [13] 22.1 µM | [14] > 100 µM | [15] > 100 µM | [16] > 100 µM

C(=C/c1nc2ccccc2o1)/c1ccc2c(c1)OCO2
inactive: [2] 16.8 µM | [20] 27.2 µM | [3] 45.7 µM | [4] 16.7 µM | [5] 16.1 µM | [6] 18 µM | [7] 21.8 µM | [9] 58.6 µM | [10] 16.6 µM | [17] 16.2 µM | [18] 40.7 µM | [19] 4.91 µM | [11] 16.1 µM | [12] 12.8 µM | [13] 21.1 µM | [14] 22.9 µM | [15] 14.7 µM | [16] 24.9 µM

O=C1NC2(CCCCC2)C2CCCCC(O)C12 (configuration not stated)
inactive: [1] > 100 µM | [2] > 100 µM | [3] > 100 µM | [4] > 100 µM | [5] > 100 µM | [6] > 100 µM | [7] > 100 µM | [8] > 100 µM | [9] > 100 µM | [10] > 100 µM | [17] > 100 µM | [18] > 100 µM | [19] > 100 µM | [11] > 100 µM | [12] > 100 µM | [13] 57.1 µM | [14] > 100 µM | [15] > 100 µM | [16] > 100 µM

COc1ccc(OCC(C)(C)O)cc1
inactive: [2] > 100 µM | [20] > 100 µM | [3] > 100 µM | [4] > 100 µM | [5] > 100 µM | [6] > 100 µM | [7] > 100 µM | [9] > 100 µM | [10] > 100 µM | [17] > 100 µM | [18] > 100 µM | [19] > 100 µM | [11] > 100 µM | [12] > 100 µM | [13] > 47 µM | [14] > 100 µM | [15] > 100 µM | [16] > 100 µM

CCN(CCO)C(=O)C1(c2ccccc2)CCCCC1
inactive: [1] > 10 µM | [2] > 10 µM | [20] > 10 µM | [3] > 10 µM | [4] > 10 µM | [5] > 10 µM | [6] > 10 µM | [7] > 10 µM | [9] > 10 µM | [10] > 10 µM | [17] > 10 µM | [18] > 10 µM | [19] > 10 µM | [11] > 10 µM | [12] > 10 µM | [13] > 10 µM | [14] > 10 µM | [15] > 10 µM | [16] > 10 µM

CN(C)Cc1cc(/N=N/c2ccc(Cl)cc2)ccc1OC(=O)c1ccccc1
inactive: [1] 15.3 µM | [2] 13.5 µM | [3] 8.85 µM | [4] 16.9 µM | [5] 15 µM | [6] 21.9 µM | [7] 15.5 µM | [8] 14.7 µM | [9] 14.6 µM | [10] 18.2 µM | [17] 12.6 µM | [18] 18.4 µM | [19] 15.7 µM | [11] 13.2 µM | [12] 14.4 µM | [13] 17 µM | [14] 17.8 µM | [15] 14.5 µM | [16] 16.1 µM

COC(=O)Cc1c([C@H]2[C@H](CC(=O)OC)c3ccccc3N2C(=O)C(F)(F)F)[nH]c2ccccc12
inactive: [1] 51.4 µM | [2] 40.3 µM | [20] 28.5 µM | [3] 9.02 µM | [4] 32.4 µM | [5] 54.3 µM | [6] 2 µM | [7] 90.2 µM | [8] > 100 µM | [9] 46.1 µM | [10] 29.5 µM | [17] 29 µM | [18] 18.2 µM | [11] 2.83 µM | [12] 29.3 µM | [13] 29.2 µM | [14] 25.2 µM | [15] 20 µM | [16] 34.5 µM

NC(=O)c1ccccc1NC(=O)C(=O)C(c1cnc2ccc([N+](=O)[O-])cc2n1)[N+](=O)[O-] (configuration not stated)
inactive: [1] > 100 µM | [2] > 100 µM | [20] > 100 µM | [3] 46.3 µM | [4] > 100 µM | [5] 79.1 µM | [6] > 100 µM | [7] > 100 µM | [8] > 100 µM | [9] > 100 µM | [10] > 100 µM | [17] > 100 µM | [19] 54.6 µM | [11] > 100 µM | [12] > 100 µM | [13] > 100 µM | [14] > 100 µM | [15] > 100 µM | [16] > 100 µM

O=C1N(C2CCCCC2)CC12CCCCC2
inactive: [1] > 100 µM | [2] 41.2 µM | [20] > 100 µM | [3] > 100 µM | [4] > 100 µM | [5] > 100 µM | [6] > 100 µM | [7] > 100 µM | [8] > 100 µM | [9] > 100 µM | [10] > 100 µM | [17] > 100 µM | [18] > 100 µM | [11] > 100 µM | [13] > 100 µM | [14] > 100 µM | [15] > 100 µM | [16] > 100 µM

Cc1ccc(N2Cc3c(ccc4ccccc34)OP2(=O)Oc2ccc(Cl)c(C)c2)cc1 (configuration not stated)
inactive: [2] > 100 µM | [20] > 100 µM | [3] 14.2 µM | [4] > 81.8 µM | [5] > 100 µM | [6] > 100 µM | [7] 81.5 µM | [9] > 100 µM | [10] > 100 µM | [17] > 100 µM | [18] > 100 µM | [19] > 84.3 µM | [11] > 100 µM | [12] > 95.1 µM | [13] > 100 µM | [14] > 100 µM | [15] > 79.4 µM | [16] > 100 µM

COc1ccc(N(C)C(=O)N(C)c2ccc([N+](=O)[O-])cc2)cc1
inactive: [1] 10.5 µM | [2] 31 µM | [20] 17.7 µM | [3] > 100 µM | [4] 23.3 µM | [5] > 100 µM | [6] 23 µM | [7] 66.4 µM | [8] 58.9 µM | [9] 61.4 µM | [10] 29.6 µM | [17] 39.4 µM | [19] 18.8 µM | [11] 43.2 µM | [12] 28.6 µM | [13] 29.6 µM | [14] 34.6 µM | [15] 14.3 µM | [16] 50.2 µM
